Data reported in PubChem BioAssay (NCI).
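Values below derive from 48-hour exposures of cells grown in 96-well plates, with endpoints linearly interpolated between the two concentrations bracketing the appropriate inhibition level. TGI is the concentration that stops growth completely.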

Columns and labels:
Assay in all cases: growth of human tumour cells (NCI), 48 h
786-0 renal = test system: 786-0 renal
A498 renal = test system: A498 renal
A549 NSCLC = test system: A549 NSCLC
ACHN renal = test system: ACHN renal
BT-549 breast = test system: BT-549 breast
CAKI-1 renal = test system: CAKI-1 renal
CCRF-CEM leukemia = test system: CCRF-CEM leukemia
COLO 205 colon = test system: COLO 205 colon
DU-145 prostate = test system: DU-145 prostate
EKVX NSCLC = test system: EKVX NSCLC
HCC-2998 colon = test system: HCC-2998 colon
HCT-116 colon = test system: HCT-116 colon
HCT-15 colon = test system: HCT-15 colon
HL-60(TB) leukemia = test system: HL-60(TB) leukemia
HOP-62 NSCLC = test system: HOP-62 NSCLC
HOP-92 NSCLC = test system: HOP-92 NSCLC
HS 578T breast = test system: HS 578T breast
HT29 colon = test system: HT29 colon
IGROV1 ovarian = test system: IGROV1 ovarian
K-562 leukemia = test system: K-562 leukemia
KM12 colon = test system: KM12 colon
LOX IMVI melanoma = test system: LOX IMVI melanoma
M14 melanoma = test system: M14 melanoma
MALME-3M melanoma = test system: MALME-3M melanoma
MCF7 breast = test system: MCF7 breast
MDA-MB-231 breast = test system: MDA-MB-231 breast
MDA-MB-435 = test system: MDA-MB-435
MDA-N = test system: MDA-N
MOLT-4 leukemia = test system: MOLT-4 leukemia
NCI-H226 lung = test system: NCI-H226 lung
NCI-H23 lung = test system: NCI-H23 lung
NCI-H460 lung = test system: NCI-H460 lung
NCI-H522 lung = test system: NCI-H522 lung
NCI/ADR-RES ovarian = test system: NCI/ADR-RES ovarian
OVCAR-3 ovarian = test system: OVCAR-3 ovarian
OVCAR-4 ovarian = test system: OVCAR-4 ovarian
OVCAR-5 ovarian = test system: OVCAR-5 ovarian
OVCAR-8 ovarian = test system: OVCAR-8 ovarian
PC-3 prostate = test system: PC-3 prostate
RXF 393 renal = test system: RXF 393 renal
SF-268 CNS = test system: SF-268 CNS
SF-295 CNS = test system: SF-295 CNS
SF-539 CNS = test system: SF-539 CNS
SK-MEL-2 melanoma = test system: SK-MEL-2 melanoma
SK-MEL-28 melanoma = test system: SK-MEL-28 melanoma
SK-MEL-5 melanoma = test system: SK-MEL-5 melanoma
SK-OV-3 ovarian = test system: SK-OV-3 ovarian
SN12C renal = test system: SN12C renal
SNB-19 CNS = test system: SNB-19 CNS
SNB-75 CNS = test system: SNB-75 CNS
SR leukemia = test system: SR leukemia
SW-620 colon = test system: SW-620 colon
T-47D breast = test system: T-47D breast
TK-10 renal = test system: TK-10 renal
U251 CNS = test system: U251 CNS
UACC-257 melanoma = test system: UACC-257 melanoma
UACC-62 melanoma = test system: UACC-62 melanoma
UO-31 renal = test system: UO-31 renal
RPMI-8226 leukemia = test system: RPMI-8226 leukemia

Q: Which TGI (786-0 renal) does the source give for `N[C@H](C(=O)O)[C@@H]1CC(Br)=NO1` here?
A: > 100 µM

Q: And the TGI (A498 renal)?
A: > 100 µM

Q: What about the TGI (A549 NSCLC) of the same molecule?
A: > 100 µM

Q: And the TGI (ACHN renal)?
A: > 100 µM

Q: And the TGI (BT-549 breast)?
A: > 100 µM

Q: And the TGI (CAKI-1 renal)?
A: > 100 µM

Q: And the TGI (CCRF-CEM leukemia)?
A: > 100 µM

Q: What about the TGI (COLO 205 colon) of the same molecule?
A: > 100 µM

Q: And the TGI (DU-145 prostate)?
A: > 100 µM

Q: What about the TGI (EKVX NSCLC) of the same molecule?
A: > 100 µM

Q: What about the TGI (HCC-2998 colon) of the same molecule?
A: > 100 µM

Q: What about the TGI (HCT-116 colon) of the same molecule?
A: > 100 µM

Q: And the TGI (HCT-15 colon)?
A: > 100 µM

Q: What about the TGI (HL-60(TB) leukemia) of the same molecule?
A: > 100 µM

Q: What about the TGI (HOP-62 NSCLC) of the same molecule?
A: > 100 µM

Q: What about the TGI (HOP-92 NSCLC) of the same molecule?
A: > 100 µM

Q: What about the TGI (HS 578T breast) of the same molecule?
A: > 100 µM

Q: And the TGI (HT29 colon)?
A: > 100 µM

Q: What about the TGI (IGROV1 ovarian) of the same molecule?
A: > 100 µM

Q: What about the TGI (K-562 leukemia) of the same molecule?
A: > 100 µM

Q: And the TGI (KM12 colon)?
A: > 100 µM

Q: What about the TGI (LOX IMVI melanoma) of the same molecule?
A: > 100 µM

Q: And the TGI (M14 melanoma)?
A: > 100 µM

Q: What about the TGI (MALME-3M melanoma) of the same molecule?
A: > 100 µM

Q: And the TGI (MCF7 breast)?
A: > 100 µM

Q: And the TGI (MDA-MB-231 breast)?
A: > 100 µM

Q: And the TGI (MDA-MB-435)?
A: > 100 µM

Q: What about the TGI (MDA-N) of the same molecule?
A: > 100 µM

Q: What about the TGI (MOLT-4 leukemia) of the same molecule?
A: > 100 µM

Q: What about the TGI (NCI-H226 lung) of the same molecule?
A: > 100 µM

Q: What about the TGI (NCI-H23 lung) of the same molecule?
A: > 100 µM

Q: And the TGI (NCI-H460 lung)?
A: > 100 µM

Q: And the TGI (NCI-H522 lung)?
A: > 100 µM

Q: And the TGI (NCI/ADR-RES ovarian)?
A: > 100 µM

Q: What about the TGI (OVCAR-3 ovarian) of the same molecule?
A: > 100 µM

Q: What about the TGI (OVCAR-4 ovarian) of the same molecule?
A: > 100 µM

Q: What about the TGI (OVCAR-5 ovarian) of the same molecule?
A: > 100 µM

Q: What about the TGI (OVCAR-8 ovarian) of the same molecule?
A: > 100 µM

Q: What about the TGI (PC-3 prostate) of the same molecule?
A: > 100 µM

Q: What about the TGI (RXF 393 renal) of the same molecule?
A: > 100 µM

Q: What about the TGI (SF-268 CNS) of the same molecule?
A: > 100 µM

Q: And the TGI (SF-295 CNS)?
A: > 100 µM

Q: And the TGI (SF-539 CNS)?
A: > 100 µM

Q: And the TGI (SK-MEL-2 melanoma)?
A: > 100 µM

Q: And the TGI (SK-MEL-28 melanoma)?
A: > 100 µM

Q: And the TGI (SK-MEL-5 melanoma)?
A: > 100 µM

Q: And the TGI (SK-OV-3 ovarian)?
A: > 100 µM

Q: And the TGI (SN12C renal)?
A: > 100 µM

Q: What about the TGI (SNB-19 CNS) of the same molecule?
A: > 100 µM

Q: What about the TGI (SNB-75 CNS) of the same molecule?
A: > 100 µM

Q: What about the TGI (SR leukemia) of the same molecule?
A: > 100 µM

Q: And the TGI (SW-620 colon)?
A: > 100 µM

Q: And the TGI (T-47D breast)?
A: > 100 µM

Q: And the TGI (TK-10 renal)?
A: > 100 µM

Q: And the TGI (U251 CNS)?
A: > 100 µM

Q: What about the TGI (UACC-257 melanoma) of the same molecule?
A: > 100 µM

Q: And the TGI (UACC-62 melanoma)?
A: > 100 µM

Q: What about the TGI (UO-31 renal) of the same molecule?
A: > 100 µM

Q: What does the source list for `CCC(=O)C(CCN1CCC2(CCCc3ccccc32)CC1)(c1ccccc1)c1ccccc1`?
A: TGI (786-0 renal): 6.09 µM; TGI (A498 renal): 6.11 µM; TGI (A549 NSCLC): 15.6 µM; TGI (ACHN renal): 11.3 µM; TGI (BT-549 breast): 3.36 µM; TGI (CAKI-1 renal): 14.5 µM; TGI (CCRF-CEM leukemia): > 100 µM; TGI (COLO 205 colon): 2.91 µM; TGI (DU-145 prostate): 11.6 µM; TGI (EKVX NSCLC): 17.6 µM; TGI (HCC-2998 colon): 7.44 µM; TGI (HCT-116 colon): 3.22 µM; TGI (HCT-15 colon): 15.1 µM; TGI (HL-60(TB) leukemia): 5.12 µM; TGI (HOP-62 NSCLC): 8.91 µM; TGI (HOP-92 NSCLC): 4.03 µM; TGI (HS 578T breast): 7.02 µM; TGI (HT29 colon): 6.01 µM; TGI (IGROV1 ovarian): 10.3 µM; TGI (KM12 colon): 4.64 µM; TGI (LOX IMVI melanoma): 2.16 µM; TGI (M14 melanoma): 4.56 µM; TGI (MALME-3M melanoma): 3.76 µM; TGI (MCF7 breast): 10.9 µM; TGI (MDA-MB-231 breast): 5.78 µM; TGI (MDA-MB-435): 12.5 µM; TGI (MDA-N): 10.9 µM; TGI (NCI-H226 lung): 6.58 µM; TGI (NCI-H23 lung): 5.45 µM; TGI (NCI-H460 lung): 9.4 µM; TGI (NCI-H522 lung): 7.14 µM; TGI (NCI/ADR-RES ovarian): 14.3 µM; TGI (OVCAR-3 ovarian): 6.67 µM; TGI (OVCAR-4 ovarian): 18.7 µM; TGI (OVCAR-5 ovarian): 14.7 µM; TGI (OVCAR-8 ovarian): 14 µM; TGI (PC-3 prostate): 8.87 µM; TGI (RPMI-8226 leukemia): 2.35 µM; TGI (RXF 393 renal): 6.18 µM; TGI (SF-268 CNS): 16.4 µM; TGI (SF-295 CNS): 4.9 µM; TGI (SF-539 CNS): 7.3 µM; TGI (SK-MEL-2 melanoma): 4.34 µM; TGI (SK-MEL-28 melanoma): 14 µM; TGI (SK-MEL-5 melanoma): 2.9 µM; TGI (SK-OV-3 ovarian): 18.2 µM; TGI (SN12C renal): 10.2 µM; TGI (SNB-19 CNS): 20.6 µM; TGI (SNB-75 CNS): > 27.2 µM; TGI (SR leukemia): 5.9 µM; TGI (SW-620 colon): 12.9 µM; TGI (T-47D breast): 10.2 µM; TGI (TK-10 renal): 11 µM; TGI (U251 CNS): 14 µM; TGI (UACC-257 melanoma): 5.51 µM; TGI (UACC-62 melanoma): 10.7 µM; TGI (UO-31 renal): 8.66 µM
